Reference: the supplement of paper PMC5908809

Assays:
[1] = tested on: normal NK cells expanded with K562-aAPC; assay: percent inhibition of viability; higher = more inhibition; conditions: 72 h, IL-2 2.5 ng/mL
Description: (§1)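 Drug sensitivity and resistance testing on K562-aAPC-expanded normal NK cells: 5 concentrations (10-fold steps over a 10,000-fold range), 72 h at 37 °C, viability by CellTiter-Glo normalised to DMSO and benzethonium chloride controls; DSS from the fitted curve.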

DERL-7 (IL-2 2.5 ng/mL) [2] = assay: as above; conditions: 72 h
IMC-1 (IL-2 20 ng/mL) [3] = assay: as above; conditions: 72 h
KAI3 (IL-2 2.5 ng/mL) [4] = assay: as above; conditions: 72 h
KHYG-1 (IL-2 2.5 ng/mL) [5] = assay: as above; conditions: 72 h
NK-92 (IL-2 2.5 ng/mL) [6] = assay: as above; conditions: 72 h
NK-YS (IL-2 2.5 ng/mL) [7] = assay: as above; conditions: 72 h
NKL (IL-2 2.5 ng/mL) [8] = assay: as above; conditions: 72 h
SNK-6 (IL-2 2.5 ng/mL) [9] = assay: as above; conditions: 72 h
YT (IL-2 2.5 ng/mL) [10] = assay: as above; conditions: 72 h
[11] = tested on: normal primary NK cells, pool 1 (3 donors) (IL-2 2.5 ng/mL); assay: as above; conditions: 72 h
[12] = tested on: normal primary NK cells, pool 1 (3 donors), resting (IL-2 0 ng/mL); assay: as above; conditions: 72 h
[13] = tested on: normal primary NK cells, pool 2 (3 donors) (IL-2 2.5 ng/mL); assay: as above; conditions: 72 h
[14] = tested on: normal primary NK cells, pool 3 (3 donors) (IL-2 2.5 ng/mL); assay: as above; conditions: 72 h
[15] = tested on: normal NK cells expanded with K562-aAPC; assay: drug sensitivity score (DSS) (DSS units); higher = more sensitive; extreme values may be limits of the assay; conditions: 72 h; IL-2 2.5 ng/mL
Description: as §1

DERL-7 (IL-2 2.5 ng/mL) [16] = assay: as above; conditions: 72 h
IMC-1 (IL-2 20 ng/mL) [17] = assay: as above; conditions: 72 h
KAI3 (IL-2 2.5 ng/mL) [18] = assay: as above; conditions: 72 h
KHYG-1 (IL-2 2.5 ng/mL) [19] = assay: as above; conditions: 72 h
NK-92 (IL-2 2.5 ng/mL) [20] = assay: as above; conditions: 72 h
NK-YS (IL-2 2.5 ng/mL) [21] = assay: as above; conditions: 72 h
NKL (IL-2 2.5 ng/mL) [22] = assay: as above; conditions: 72 h
SNK-6 (IL-2 2.5 ng/mL) [23] = assay: as above; conditions: 72 h
YT (IL-2 2.5 ng/mL) [24] = assay: as above; conditions: 72 h
[25] = tested on: normal primary NK cells, pool 1 (3 donors) (IL-2 2.5 ng/mL); assay: as above; conditions: 72 h
[26] = tested on: normal primary NK cells, pool 1 (3 donors), resting (IL-2 0 ng/mL); assay: as above; conditions: 72 h
[27] = tested on: normal primary NK cells, pool 2 (3 donors) (IL-2 2.5 ng/mL); assay: as above; conditions: 72 h
[28] = tested on: normal primary NK cells, pool 3 (3 donors) (IL-2 2.5 ng/mL); assay: as above; conditions: 72 h

Cn1cc(-c2cnn3c(N)c(Br)c([C@@H]4CCCNC4)nc23)cn1 [MK-8776] (max concentration tested 2500 nM)
percent inhibition of viability [%]
Conditions | 0.25 nM | 2.5 nM | 25 nM | 250 nM | 2500 nM
DERL-7 (IL-2 2.5 ng/mL) [2] | -4.26 | -3.5 | 3.67 | 6.88 | 55.8
IMC-1 (IL-2 20 ng/mL) [3] | 0.83 | -1.94 | -0.11 | -7.96 | -12.2
KAI3 (IL-2 2.5 ng/mL) [4] | 3.31 | 2.43 | 4.64 | 27.4 | 78.2
KHYG-1 (IL-2 2.5 ng/mL) [5] | -1.01 | -4.38 | -0.53 | 35.5 | 96.9
NK-92 (IL-2 2.5 ng/mL) [6] | -2.81 | 3.64 | -4.5 | 1.39 | 59.4
NK-YS (IL-2 2.5 ng/mL) [7] | -4.27 | -8.69 | -3.31 | 4.44 | 71.2
NKL (IL-2 2.5 ng/mL) [8] | -4.57 | -4.36 | -8.73 | 22.1 | 81.6
SNK-6 (IL-2 2.5 ng/mL) [9] | 9.37 | 1.96 | -6.2 | 5.96 | 39.8
YT (IL-2 2.5 ng/mL) [10] | 0.02 | -2.99 | 0.3 | 1.22 | 7.84
[1] | -4.61 | 0.4 | -2.28 | 10.6 | 52.3
[11] | -5.76 | -3.11 | 7.06 | 4.82 | 30.9
[12] | -9.91 | -16.5 | 4.6 | 0.8 | 20
[13] | -8.05 | -5.57 | -3.65 | -0.92 | 21.5
[14] | -9.21 | -3.85 | -3.76 | -1.26 | 7.54

Conditions | drug sensitivity score
DERL-7 (IL-2 2.5 ng/mL) [16] | 4.16
IMC-1 (IL-2 20 ng/mL) [17] | 0
KAI3 (IL-2 2.5 ng/mL) [18] | 7.81
KHYG-1 (IL-2 2.5 ng/mL) [19] | 10.2
NK-92 (IL-2 2.5 ng/mL) [20] | 3.39
NK-YS (IL-2 2.5 ng/mL) [21] | 4.58
NKL (IL-2 2.5 ng/mL) [22] | 7.86
SNK-6 (IL-2 2.5 ng/mL) [23] | 2.97
YT (IL-2 2.5 ng/mL) [24] | 0
[15] | 4.51
[25] | 2.16
[26] | 0.68
[27] | 0.64
[28] | 0

Cc1ccc(NC(=O)c2ccc(CN3CCN(C)CC3)cc2)cc1Nc1nc(-c2cccnc2)cs1 [Masitinib] (max concentration tested 10000 nM)
percent inhibition of viability [%]
Conditions | 1 nM | 10 nM | 100 nM | 1000 nM | 10000 nM
DERL-7 (IL-2 2.5 ng/mL) [2] | -4.46 | 4.7 | -3.25 | 14.7 | 99.9
IMC-1 (IL-2 20 ng/mL) [3] | -6.41 | -3.52 | -8.01 | -3.09 | 100
KAI3 (IL-2 2.5 ng/mL) [4] | 0.17 | 0.29 | -11.5 | 2.65 | 96.5
KHYG-1 (IL-2 2.5 ng/mL) [5] | -4.84 | 3.44 | -1.97 | 5.87 | 97.8
NK-92 (IL-2 2.5 ng/mL) [6] | -1.64 | 6.19 | 1.77 | -11.2 | 96.5
NK-YS (IL-2 2.5 ng/mL) [7] | -1.57 | -2.35 | 1.86 | 14.4 | 98.2
NKL (IL-2 2.5 ng/mL) [8] | -13.2 | -15.1 | -14.2 | -3.8 | 96.7
SNK-6 (IL-2 2.5 ng/mL) [9] | 11 | 9.07 | -33.7 | -49.3 | 86.9
YT (IL-2 2.5 ng/mL) [10] | 0.22 | -0.59 | -2.17 | 8.04 | 97.5
[1] | -1.56 | -0.88 | -2.2 | 6.06 | 99.6
[11] | -9.84 | -12.7 | -4.81 | -1.08 | 98.6
[12] | -13.3 | -12 | 9.4 | -3 | 95.5
[13] | -10.8 | -9.27 | -8.85 | -5.72 | 90.7
[14] | -9.21 | -14.7 | -12.2 | -0.94 | 86.2

Conditions | drug sensitivity score
DERL-7 (IL-2 2.5 ng/mL) [16] | 7.97
IMC-1 (IL-2 20 ng/mL) [17] | 5.34
KAI3 (IL-2 2.5 ng/mL) [18] | 5.72
KHYG-1 (IL-2 2.5 ng/mL) [19] | 6.29
NK-92 (IL-2 2.5 ng/mL) [20] | 4.64
NK-YS (IL-2 2.5 ng/mL) [21] | 7.84
NKL (IL-2 2.5 ng/mL) [22] | 5.08
SNK-6 (IL-2 2.5 ng/mL) [23] | 3.3
YT (IL-2 2.5 ng/mL) [24] | 6.67
[15] | 6.42
[25] | 5.41
[26] | 5.07
[27] | 4.61
[28] | 4.72

Clc1ccc(C(c2ccccc2Cl)C(Cl)Cl)cc1 (configuration not stated) [Mitotane] (max concentration tested 10000 nM)
percent inhibition of viability [%]
Conditions | 1 nM | 10 nM | 100 nM | 1000 nM | 10000 nM
DERL-7 (IL-2 2.5 ng/mL) [2] | -3.98 | -2.6 | -1.88 | -5.27 | 1.52
IMC-1 (IL-2 20 ng/mL) [3] | -4 | -2.56 | -9 | -5.63 | -8.85
KAI3 (IL-2 2.5 ng/mL) [4] | -6.14 | -3.83 | -3.7 | -6.65 | -4.73
KHYG-1 (IL-2 2.5 ng/mL) [5] | -5.54 | -6.16 | -6.75 | -7.76 | -6.11
NK-92 (IL-2 2.5 ng/mL) [6] | -11.9 | -11.6 | -10.9 | -14.2 | -13.7
NK-YS (IL-2 2.5 ng/mL) [7] | -3.11 | -4.91 | -8.11 | -1.41 | -4.03
NKL (IL-2 2.5 ng/mL) [8] | -23.5 | -31.7 | -25.8 | -21.9 | -16.6
SNK-6 (IL-2 2.5 ng/mL) [9] | 11.9 | 12.4 | -5.92 | -1.09 | -8.81
YT (IL-2 2.5 ng/mL) [10] | -5.71 | -7.2 | -6.08 | -5.64 | -3.1
[1] | -3.47 | -5.5 | -2.42 | -6.05 | -4.65
[11] | -4.65 | -4.88 | 5.61 | -1.23 | -0.57
[12] | -7.77 | -15.2 | 11.9 | -9.1 | 7.07
[13] | -6.28 | -4.83 | -5.23 | -1.37 | -4.6
[14] | -8.66 | -9.61 | -7 | -8.07 | 0.73

Conditions | drug sensitivity score
DERL-7 (IL-2 2.5 ng/mL) [16] | 0
IMC-1 (IL-2 20 ng/mL) [17] | 0
KAI3 (IL-2 2.5 ng/mL) [18] | 0
KHYG-1 (IL-2 2.5 ng/mL) [19] | 0
NK-92 (IL-2 2.5 ng/mL) [20] | 0
NK-YS (IL-2 2.5 ng/mL) [21] | 0
NKL (IL-2 2.5 ng/mL) [22] | 0
SNK-6 (IL-2 2.5 ng/mL) [23] | 0
YT (IL-2 2.5 ng/mL) [24] | 0
[15] | 0
[25] | 0
[26] | 0
[27] | 0
[28] | 0
